The values that follow come from patent US20040048791A1, “Method for treating neoplastic cells using cycloprodigiosin or salt thereof” (priority 2002, published 2004).

The test system of assay [1] is JNK. The experiment in a line: JNK kinase activity after immune precipitation from HeLa cells. The class given is cell-based. The following applies: 1 μM, TNFα or PMA 15 minutes, FIG. 9A, hydrochloride. On the procedure:
HeLa cells were pretreated with cPrG-HCl (1 μM) for 1 hour and then stimulated with TNFα (20 ng/ml) or PMA (1 μg/ml) for 15 minutes, and JNK recovered by an immune precipitation method was then reacted with [γ-^32P]-ATP and a substrate GST-c-Jun, after which SDS-PAGE was carried out and the resulting gel was analyzed by an imaging analyzer. Further, HeLa cells were pretreated with cPrG-HCl (1 μM) for 1 hour and then stimulated with TNFα (20 ng/ml) for 15 minutes, a cell extract was recovered and subjected to SDS-PAGE and Western blotting was carried out using p38 phosphorylation antibody.

The target of assay [2] is casein kinase II (CKII) (Homo sapiens, UniProt P68400). In words: Casein kinase II activity in vitro. The class given is biochemical. The following applies: FIG. 12, hydrochloride. The text has this:
Accordingly, in order to identify the p65 kinase which cPrG-HCl suppressed, the effect of cPrG-HCl on PKA (FIG. 13), casein kinase II (CKII) (FIG. 12), and IκB kinase (IKK) (FIG. 14) was studied in vitro.

Assay [3] deals with AP-1. The conditions noted are these: earlier abstract of the inventors (Kamata et al., 2000); cited from earlier work.
Assay [4] has as its system JNK. The following applies: earlier abstract of the inventors (Kamata et al., 2000); cited from earlier work.
Assay [5] concerns NF-κB. In words: Nuclear translocation of NF-κB (Western blotting of p65 and p50). It is filed as cell-based. Here is the method: Electrophoretic mobility shift assay (EMSA): Nuclear extracts were prepared by the method of Schreiber, et al (Schreiber, E., Matthias, P., Muller, M. M. and Schaffner, W. (1989) Nucleic Acids Res. 17, 6419). Briefly, cells were solubilized with a buffer (10 mM HEPES-NaOH, pH 7.9, 10 mM KCl, 0.1 mM EDTA, 0.1 mM EGTA, 0.4% NP-40, 0.5 mM PMSF, 1 μg/ml aprotinin, 1 μg/ml leupeptin, 1 μg/ml pepstatin, 1 mM DTT), and then centrifuged at 10,000 rpm for 15 min. The pellets were resuspended in a buffer (20 mM HEPES-NaOH, pH 7.9, 400 mM NaCl, 1 mM EDTA, 1 mM EGTA, 1 mM PMSF, 1 μg/ml aprotinin, 1 μg/ml leupeptin, 1 μg/ml pepstatin, 1 μg/ml chymostatin, 1 μg/ml antipain, 1 mM DTT), and then centrifuged at 15,000 rpm for 15 min. […] The samples were electrophoresed on an 8% polyacrylamide gel and analyzed by an Imaging plate (Fuji Film). […]
In order to find out the mechanism of NF-κB suppression by cPrG-HCl, the effect on the signal transduction system, which functions upstream of NF-κB, was analyzed. […] Next, the effect of cPrG-HCl on phosphorylation and degradation of IκB was analyzed by Western blotting using anti-IκB antibody (FIG. 2E). […] Accordingly, nuclear translocation of NF-κB was analyzed by Western blotting using p65 and p50 which are components of NF-κB (FIG. 2F). […] Further, the state of NF-κB activation in the nucleus was analyzed by EMSA (electrophoretic mobility shift assay) (FIG. 2G). […]

Molecules are shown by their SMILES. “Also recorded” adds a separate entry of the source. Structures can show the parent of a compound that is named as a salt.

Sequence of casein kinase II (CKII) (P68400 whole entry): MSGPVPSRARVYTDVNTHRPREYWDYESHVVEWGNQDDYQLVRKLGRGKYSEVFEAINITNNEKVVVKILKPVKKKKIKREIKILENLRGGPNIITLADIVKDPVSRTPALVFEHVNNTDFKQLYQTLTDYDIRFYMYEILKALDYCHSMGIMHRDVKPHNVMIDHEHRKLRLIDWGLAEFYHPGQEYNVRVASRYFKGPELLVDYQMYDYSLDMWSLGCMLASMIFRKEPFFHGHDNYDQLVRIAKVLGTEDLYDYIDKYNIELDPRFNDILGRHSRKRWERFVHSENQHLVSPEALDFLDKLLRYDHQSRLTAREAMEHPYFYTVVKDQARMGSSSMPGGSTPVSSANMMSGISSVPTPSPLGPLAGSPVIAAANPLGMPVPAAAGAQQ

For the compound `COC1=CC(c2ccc[nH]2)=N/C1=C\c1[nH]c(C)c2c1C(C)CCC2` (stereo not drawn) [cPrG-HCl, Cycloprodigiosin hydrochloride], the “effect on JNK kinase” value in assay [1] is recorded as “suppressed neither; also recorded: no suppression”. In addition, the “effect on casein kinase II (CKII) activity” value in assay [2] is “does not directly suppress; also recorded: no suppressive effect”. Also, in assay [3], the “gene expression induction by AP-1” value was “significantly suppressed”. For the same compound, the JNK activation entry in assay [4] is reported as “no suppressive effect”. The “nuclear translocation of NF-κB” value in assay [5] (PMA stimulation, FIG. 3B) is recorded as “inhibited neither”; in assay [5] (TNFα stimulation, FIG. 2F), “not inhibited”.
